Assay results taken from patent US6652921B2, “Wood containing fixed sorbic acid or sorbic acid salts” (Nutrinova Nutrition Specialties & Food Ingredients GmbH, priority 2000, dated 2003).

Legend:
[1] = cited from earlier work; for Solubility in water: water (cold water for sorbic acid)
[2] = humans; internationally established; cited from earlier work
[3] = mean body weight of 60 kg
Method: Sorbic acid and its salts are accordingly permitted for food use by international committees and permitted worldwide as a preservative for direct addition to foods. The internationally established tolerable daily dose for humans of up to 25 mg/kg of body weight corresponds to a tolerable consumption by adults of up to 1.5 g per day (at a mean body weight of 60 kg).

fungi = conditions: cited from earlier work
wood-damaging fungi = conditions: cited from earlier work

For `C/C=C/C=C/C(=O)[O-].[K+]` [Potassium sorbate], the Solubility in water [1] is given as “dissolves very readily in water”.
For `C/C=C/C=C/C(=O)O` [Sorbic acid, trans, trans-2,4-hexadienoic acid], the Tolerable daily dose [2] is listed as “up to 25 mg/kg of body weight”, the “Tolerable consumption by adults” value [3] is listed as “up to 1.5 g per day” and the “Solubility in liquid alcohols” value ([1]; liquid alcohols) is listed as “good”. For the same compound, the Solubility in water [1] was “dissolves only sparingly in cold water”.
For `C/C=C/C=C/C(=O)[O-].[Na+]` [sodium sorbate], the “Growth of fungi on treated bamboo” value (fungi; after a few days) is given as “growth of fungi and poorer results than the dehydroacetic acid” and the “Activity depending on pH” value (fungi; bamboo) is given as “only active in these studies at a pH of 3.0”.
For `C/C=C/C=C/C(=O)[O-].C/C=C/C=C/C(=O)[O-].[Zn+2]` [zinc salt of sorbic acid], the “Activity as wood preservative” value (wood-damaging fungi) is given as “inactive”.
